Experimental data taken from PubChem BioAssay (NCI).
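96-well plates; 48 h exposure; 5 concentrations. Endpoints by linear interpolation between flanking doses. Not reached: highest tested concentration assigned. GI50 is the concentration that inhibits growth by half. At the TGI there is no net growth.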

Key:
Assay in all cases: DTP human tumour cell line panel, 48 h
RPMI-8226 leukemia = test system: RPMI-8226 leukemia
OVCAR-3 ovarian = test system: OVCAR-3 ovarian
NCI-H226 lung = test system: NCI-H226 lung
KM12 colon = test system: KM12 colon
NCI-H522 lung = test system: NCI-H522 lung
SNB-75 CNS = test system: SNB-75 CNS
NCI-H23 lung = test system: NCI-H23 lung
UO-31 renal = test system: UO-31 renal
LOX IMVI melanoma = test system: LOX IMVI melanoma
SF-295 CNS = test system: SF-295 CNS
K-562 leukemia = test system: K-562 leukemia
HOP-62 NSCLC = test system: HOP-62 NSCLC
PC-3 prostate = test system: PC-3 prostate
MOLT-4 leukemia = test system: MOLT-4 leukemia
UACC-257 melanoma = test system: UACC-257 melanoma
CAKI-1 renal = test system: CAKI-1 renal
HS 578T breast = test system: HS 578T breast
HL-60(TB) leukemia = test system: HL-60(TB) leukemia
MCF7 breast = test system: MCF7 breast
HCC-2998 colon = test system: HCC-2998 colon
SNB-19 CNS = test system: SNB-19 CNS
ACHN renal = test system: ACHN renal
SF-268 CNS = test system: SF-268 CNS
A549 NSCLC = test system: A549 NSCLC
OVCAR-5 ovarian = test system: OVCAR-5 ovarian
RXF 393 renal = test system: RXF 393 renal
EKVX NSCLC = test system: EKVX NSCLC
T-47D breast = test system: T-47D breast
TK-10 renal = test system: TK-10 renal
U251 CNS = test system: U251 CNS
HOP-92 NSCLC = test system: HOP-92 NSCLC
MDA-MB-231 breast = test system: MDA-MB-231 breast
786-0 renal = test system: 786-0 renal
COLO 205 colon = test system: COLO 205 colon
SF-539 CNS = test system: SF-539 CNS
SK-MEL-2 melanoma = test system: SK-MEL-2 melanoma
DU-145 prostate = test system: DU-145 prostate
SR leukemia = test system: SR leukemia
A498 renal = test system: A498 renal
NCI-H460 lung = test system: NCI-H460 lung

**Q.** Which results are given for `CCN(CC)S(=O)(=O)c1ccc(-c2nc(C(Cl)Cl)nc3cc(C)nn23)cc1`?
**A.** GI50 (RPMI-8226 leukemia): 2110 nM; TGI (RPMI-8226 leukemia): 5.72 µM; GI50 (OVCAR-3 ovarian): 1850 nM; TGI (OVCAR-3 ovarian): 4.33 µM; GI50 (NCI-H226 lung): 5.36 µM; TGI (NCI-H226 lung): > 100 µM; GI50 (KM12 colon): 1890 nM; TGI (KM12 colon): 5.35 µM; GI50 (NCI-H522 lung): 4.55 µM; TGI (NCI-H522 lung): > 100 µM; GI50 (SNB-75 CNS): 6.91 µM; TGI (SNB-75 CNS): > 100 µM; GI50 (NCI-H23 lung): 2010 nM; TGI (NCI-H23 lung): 4.96 µM; GI50 (UO-31 renal): 2780 nM; TGI (UO-31 renal): > 100 µM; GI50 (LOX IMVI melanoma): 6.32 µM; TGI (LOX IMVI melanoma): > 100 µM; GI50 (SF-295 CNS): 2130 nM; TGI (SF-295 CNS): 6.77 µM; GI50 (K-562 leukemia): 2940 nM; TGI (K-562 leukemia): > 100 µM; GI50 (HOP-62 NSCLC): 2200 nM; TGI (HOP-62 NSCLC): 7.4 µM; GI50 (PC-3 prostate): 2160 nM; TGI (PC-3 prostate): 7.41 µM; GI50 (MOLT-4 leukemia): 3.32 µM; TGI (MOLT-4 leukemia): > 100 µM; GI50 (UACC-257 melanoma): 2590 nM; TGI (UACC-257 melanoma): 8.66 µM; GI50 (CAKI-1 renal): 1960 nM; TGI (CAKI-1 renal): 5.57 µM; GI50 (HS 578T breast): 2400 nM; TGI (HS 578T breast): 7.08 µM; GI50 (HL-60(TB) leukemia): 2600 nM; TGI (HL-60(TB) leukemia): > 100 µM; GI50 (MCF7 breast): 2840 nM; TGI (MCF7 breast): > 100 µM; GI50 (HCC-2998 colon): 1700 nM; TGI (HCC-2998 colon): 3.47 µM; GI50 (SNB-19 CNS): 2900 nM; TGI (SNB-19 CNS): > 100 µM; GI50 (ACHN renal): 1870 nM; TGI (ACHN renal): 5.12 µM; GI50 (SF-268 CNS): 3.32 µM; TGI (SF-268 CNS): > 100 µM; GI50 (A549 NSCLC): 1880 nM; TGI (A549 NSCLC): 4.6 µM; GI50 (OVCAR-5 ovarian): 3.07 µM; TGI (OVCAR-5 ovarian): > 100 µM; GI50 (RXF 393 renal): 1710 nM; TGI (RXF 393 renal): 5.17 µM; GI50 (EKVX NSCLC): 2050 nM; TGI (EKVX NSCLC): 5.35 µM; GI50 (T-47D breast): 4.03 µM; TGI (T-47D breast): > 100 µM; GI50 (TK-10 renal): 3.03 µM; TGI (TK-10 renal): > 100 µM; GI50 (U251 CNS): 2190 nM; TGI (U251 CNS): > 100 µM; GI50 (HOP-92 NSCLC): 1900 nM; TGI (HOP-92 NSCLC): 5.96 µM; GI50 (MDA-MB-231 breast): 2550 nM; TGI (MDA-MB-231 breast): > 100 µM; GI50 (786-0 renal): > 100 µM; TGI (786-0 renal): > 100 µM; GI50 (COLO 205 colon): 1850 nM; TGI (COLO 205 colon): 4.17 µM; GI50 (SF-539 CNS): 3.07 µM; TGI (SF-539 CNS): > 100 µM; GI50 (SK-MEL-2 melanoma): > 100 µM; TGI (SK-MEL-2 melanoma): > 100 µM; GI50 (DU-145 prostate): 1700 nM; TGI (DU-145 prostate): 4.49 µM; GI50 (SR leukemia): 2400 nM; TGI (SR leukemia): > 100 µM; GI50 (A498 renal): 2220 nM; TGI (A498 renal): 9.24 µM; GI50 (NCI-H460 lung): 1850 nM; TGI (NCI-H460 lung): 4.47 µM
